Our source for the melting point and inhibition values is patent publication US20090197859A1 (Pfizer Inc., priority 2008, published 2009).

The target of data set [1] is T1, cloned human 5-HT6 receptor (Homo sapiens, UniProt P50406).
T1 construct: host or cells: HeLa cells, G-418 selection, membrane preparation
The experiment in a line: 5-HT6 Receptor Binding Assay ([3H]-LSD radioligand, SPA). The settings on record: for inhibition at 1 µM: read-out: 5HT6 % inh @ 1 uM. Here is the method:
5-HT6 Receptor Binding Assay
Hela cells containing the cloned human 5-HT6 receptor were acquired from Dr. David R. Sibley's laboratory in National Institute of Health (see Sibley, D. R., J. Neurochemistry, 66, 47-56, 1996). Cells were grown in high glucose Dulbecco's modified Eagle's medium, supplemented with L-glutamine, 0.5% sodium pyruvate, 0.3% penicillin-streptomycin, 0.025% G-418 and 5% Gibco fetal bovine serum and then were harvested, when confluent, in cold phosphate buffered saline.
Harvested intact cells were washed once in cold phosphate-buffered saline. The cells were pelleted and resuspended in 100 ml of cold 50 mM Tris, 5 mM EDTA and 5 mM EGTA, pH 7.4. Homogenization was with a Vir Tishear generator, 4 cycles for 30 seconds each at setting 50. The homogenized cells were centrifuged at […] for 10 minutes and the supernatant was removed. The pellet was resuspended in 100 ml of the above buffer and rehomogenized for 2 cycles. The rehomogenized cells were then centrifuged at […] for 10 minutes and the supernatant was removed. The combined supernatant (200 ml) was centrifuged at 23,000 RPM (80,000×g) for 1 hour in a Beckman Rotor (42.1 Ti). The membrane pellet was resuspended in […] of assay buffer containing HEPES 20 mM, MgCl2 10 mM, NaCl 150 mM, EDTA 1 mM, pH 7.4 and stored frozen in aliqouts at −70° C.
The radioligand binding assay used [^3H]-lysergic acid diethylamide (LSD). The assay was carried out in Wallac 96-well sample plates by the addition of 11 μl of the test sample at the appropriate dilution (the assay employed 11 serial concentrations of samples run in duplicate), 11 μl of radioligand, and 178 μl of a washed mixture of WGA-coated SPA beads and membranes in binding buffer. The plates were shaken for about 5 minutes and then incubated at room temperature for 1 hour. The plates were then loaded into counting cassettes and counted in a Wallac MicroBeta Trilux scintillation counter.
Binding Constant Determination may be obtained by performing serial dilutions, e.g., eleven dilutions, of test compounds into assay plates using the PE/Cetus Pro/Pette pipetter. These dilutions are followed by radioligand and the bead-membrane mixture prepared as described above. After obtaining the specifically bound cpm, the data are fit to a one-site binding model using GraphPad Prism ver. 2.0. Estimated IC50 values are converted to Ki values using the Cheng-Prusoff equation (Cheng, Y. C. et al., Biochem. Pharmacol., 22, 3099-108, 1973).

Where a name gives a salt, the structure may show the parent alone.

Usually melting point stands for the temperature, or range, at which the solid turns liquid.

T1 sequence (P50406 whole entry): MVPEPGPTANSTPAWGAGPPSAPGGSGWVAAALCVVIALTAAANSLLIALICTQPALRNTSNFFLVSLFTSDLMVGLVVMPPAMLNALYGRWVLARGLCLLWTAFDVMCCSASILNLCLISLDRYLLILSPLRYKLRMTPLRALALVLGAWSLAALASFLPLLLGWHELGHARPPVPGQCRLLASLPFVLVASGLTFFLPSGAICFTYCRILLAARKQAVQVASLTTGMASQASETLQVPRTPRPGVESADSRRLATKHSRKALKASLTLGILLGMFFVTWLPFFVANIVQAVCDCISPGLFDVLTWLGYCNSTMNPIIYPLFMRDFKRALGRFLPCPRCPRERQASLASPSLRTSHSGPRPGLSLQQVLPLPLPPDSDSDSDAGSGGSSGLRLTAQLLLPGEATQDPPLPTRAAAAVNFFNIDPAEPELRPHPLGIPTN

Take `CN1CCC(c2cccc(C(=O)N3CCC(Oc4cccc(F)c4)CC3)n2)C1` (stereo not drawn) (as salt: hydrochloride) [Example 16, [4-(3-Fluoro-phenoxy)-piperidin-1-yl]-[6-(1-methyl-pyrrolidin-3-yl)-pyridin-2-yl]-methanone]: the melting point was in the range of 85 to 86 °C.

As for `CN1CCN(c2cccc(C(=O)N3CC=C(c4ccccc4F)CC3)n2)CC1` (as salt: hydrochloride) [Example 21, [4-(2-Fluoro-phenyl)-3,6-dihydro-2H-pyridin-1-yl]-[6-(4-methyl-piperazin-1-yl)-pyridin-2-yl]-methanone], the melting point was in the range of 176.7 to 177.2 °C.

For `Cc1cccc(F)c1C1CCN(C(=O)c2cccc(N3CCN(C)CC3)n2)CC1` (as salt: hydrochloride) [Example 23, [4-(2-Fluoro-6-methyl-phenyl)-piperidin-1-yl]-[6-(4-methyl-piperazin-1-yl)-pyridin-2-yl]-methanone], the melting point lay in the range of 163 to 164.7 °C. Still for that read-out and setting: the figure for `Cc1ccccc1C1CCCCN1C(=O)c1cccc(N2CCNCC2)n1` (stereo not drawn) (as salt: hydrochloride) [Example 26, (6-Piperazin-1-yl-pyridin-2-yl)-(2-o-tolyl-piperidin-1-yl)-methanone] is 105.6 to 106 °C; for `O=C(c1cccc(N2CCCNCC2)n1)N1CC[C@H](Oc2ccccc2F)C1` (as salt: hydrochloride) [Example 30, (6-[1,4]Diazepan-1-yl-pyridin-2-yl)-[(S)-3-(2-fluoro-phenoxy)-pyrrolidin-1-yl]-methanone] it is 75 to 77 °C. The molecule `CN1CCCN(c2cccc(C(=O)N3CC[C@@H](Oc4ccccc4F)C3)n2)CC1` (as salt: hydrochloride) [Example 46, [(R)-3-(2-Fluoro-phenoxy)-pyrrolidin-1-yl]-[6-(4-methyl-[1,4]diazepan-1-yl)-pyridin-2-yl]-methanone] yielded a melting point of 106 to 108 °C. `O=S(=O)(c1cccc(N2CCNCC2)n1)N1CCC(c2ccccc2F)CC1` (as salt: hydrochloride) [Example 51, 1-{6-[4-(2-Fluoro-phenyl)-piperidine-1-sulfonyl]-pyridin-2-yl}-piperazine] returned a melting point of 211 to 212.2 °C. The same measure, in the same setting: the figure for `Cc1ccccc1O[C@@H]1CCN(C(=O)c2cccc(N3CCCN(C)CC3)n2)C1` (as salt: hydrochloride) [Example 53, [6-(4-Methyl-[1,4]diazepan-1-yl)-pyridin-2-yl]-((R)-3-o-tolyloxy-pyrrolidin-1-yl)-methanone] is 94 to 96 °C; for `Cc1ccccc1C1CCN(S(=O)(=O)c2cccc(N3CCN(C)CC3)n2)CC1` (as salt: hydrochloride) [Example 78, 1-Methyl-4-[6-(4-o-tolyl-piperidine-1-sulfonyl)-pyridin-2-yl]-piperazine] it is 203 to 204.5 °C; for `Cc1ccccc1OC1CCN(C(=O)c2cccc(C3CCN(C)CC3)n2)CC1` (as salt: hydrochloride) [Example 95, (1′-Methyl-1′,2′,3′,4′,5′,6′-hexahydro-[2,4′]bipyridinyl-6-yl)-(4-o-tolyloxy-piperidin-1-yl)-methanone] it is 118 to 120 °C.

On to `Cc1cccc(OC2CCN(C(=O)c3cccc(C4CCN(C)C4)n3)CC2)c1` (stereo not drawn) [Example 17, [6-(1-Methyl-pyrrolidin-3-yl)-pyridin-2-yl]-(4-m-tolyloxy-piperidin-1-yl)-methanone], for which the melting point lay in the range of 89 to 90 °C. The inhibition at 1 µM in data set [1] stood at 96.4%.

`Cc1cccc(O[C@@H]2CCN(C(=O)c3cccc(N4CCCN(C)CC4)n3)C2)c1` [Example 19, [6-(4-Methyl-[1,4]diazepan-1-yl)-pryidin-2-yl]-((R)-3-m-tolyloxy-pyrrolidin-1-yl)-methanone] registered a melting point of 82 to 84 °C. In data set [1], the inhibition at 1 µM worked out at 78.5%. On the same counts, the results for `CN1CCN(c2cccc(C(=O)N3CCC(c4ccccc4F)CC3)n2)CC1` [Example 20, [4-(2-Fluoro-phenyl)-piperidin-1-yl]-[6-(4-methyl-piperazin-1-yl)-pyridin-2-yl]-methanone] are 111 to 113 °C and 101%. In turn, `Cc1ccccc1C1=CCN(C(=O)c2cccc(N3CCN(C)CC3)n2)CC1` [Example 24, [6-(4-Methyl-piperazin-1-yl)-pyridin-2-yl]-(4-o-tolyl-3,6-dihydro-2H-pyridin-1-yl)-methanone] yielded a melting point of 160.7 to 162.3 °C. Besides, the inhibition at 0.3 µM in data set [1] (0.3 μM (stated in cell), read-out: 5HT6 % inh @ 0.3 μM) worked out at 92%. `O=C(c1cccc(N2CCCNCC2)n1)N1CC[C@H](Oc2ccc(F)cc2)C1` [Example 25, (6-[1,4]Diazepan-1-yl-pyridin-2-yl)-[(S)-3-(4-fluoro-phenoxy)-pyrrolidin-1-yl]-methanone] registered a melting point of 72 to 74 °C. The inhibition at 1 µM in data set [1] turned out to be 75.4%. As for `O=C(c1cccc(N2CCNCC2)n1)N1CCCCC1c1cccc(F)c1` (stereo not drawn) [Example 27, [2-(3-Fluoro-phenyl)-piperidin-1-yl]-(6-piperazin-1-yl-pyridin-2-yl)-methanone], the melting point was 156.8 to 157 °C. In addition, in data set [1], the inhibition at 1 µM was determined as 94.5%. Molecule `Cc1cccc(C2CCCCN2C(=O)c2cccc(N3CCNCC3)n2)c1` (stereo not drawn) [Example 28, (6-Piperazin-1-yl-pyridin-2-yl)-(2-m-tolyl-piperidin-1-yl)-methanone] came in with a melting point of 154.1 to 155.5 °C. Also, in data set [1], the inhibition at 1 µM stood at 94.6%.

Regarding `O=C(c1cccc(N2CCNCC2)n1)N1CCCCC1c1ccc(F)cc1` (stereo not drawn) [Example 29, [2-(4-Fluoro-phenyl)-piperidin-1-yl]-(6-piperazin-1-yl-pyridin-2-yl)-methanone], the melting point lay within 102 to 103.2 °C. For the same molecule, the inhibition at 1 µM in data set [1] was 75.1%. In the case of `O=C(c1cccc(N2CCCNCC2)n1)N1CCCCC1c1ccccc1F` (stereo not drawn) [Example 31, (6-[1,4]Diazepan-1-yl-pyridin-2-yl)-[2-(2-fluoro-phenyl)-piperidin-1-yl]-methanone], the melting point was 183.4 to 184 °C. The inhibition at 1 µM in data set [1] stood at 94.5%. For the molecule `Cc1ccccc1C1CCCCN1C(=O)c1cccc(N2CCCNCC2)n1` (stereo not drawn) [Example 33, (6-[1,4]Diazepan-1-yl-pyridin-2-yl)-(2-o-tolyl-piperidin-1-yl)-methanone], the melting point lay in the range of 123.3 to 124 °C. For the same molecule, in data set [1], the inhibition at 1 µM turned out to be 84.6%. As for `Cc1cccc(C2CCCCN2C(=O)c2cccc(N3CCCNCC3)n2)c1` (stereo not drawn) [Example 34, (6-[1,4]Diazepan-1-yl-pyridin-2-yl)-(2-m-tolyl-piperidin-1-yl)-methanone], the melting point is 138.5 to 139 °C. The inhibition at 1 µM in data set [1] amounted to 95.3%.

In turn, `Cc1ccccc1O[C@H]1CCN(C(=O)c2cccc(N3CCCNCC3)n2)C1` [Example 36, (6-[1,4]Diazepan-1-yl-pyridin-2-yl)-((S)-3-o-tolyloxy-pyrrolidin-1-yl)-methanone] yielded a melting point of 140 to 142 °C. For the same molecule, the inhibition at 1 µM in data set [1] is 93.5%. `Cc1ccc(C2CCCCN2C(=O)c2cccc(N3CCCNCC3)n2)cc1` (stereo not drawn) [Example 37, (6-[1,4]Diazepan-1-yl-pyridin-2-yl)-(2-p-tolyl-piperidin-1-yl)-methanone]: the melting point was 147.9 to 148.5 °C. In addition, the inhibition at 1 µM in data set [1] worked out at 71.6%. On the same counts, the results for `O=C(c1cccc(N2CCCNCC2)n1)N1CCC[C@H](Oc2cccc(F)c2)C1` [Example 38, (6-[1,4]Diazepan-1-yl-pyridin-2-yl)-[(S)-3-(3-fluoro-phenoxy)-piperidin-1-yl]-methanone] are 96.9 to 97.5 °C and 99.4%.

Molecule `O=C(c1cccc(N2CCCNCC2)n1)N1CCC[C@H](Oc2ccc(F)cc2)C1` [Example 39, (6-[1,4]Diazepan-1-yl-pyridin-2-yl)-[(S)-3-(4-fluoro-phenoxy)-piperidin-1-yl]-methanone] registered a melting point of 107.9 to 109 °C. Moreover, the inhibition at 1 µM in data set [1] is 82%. Consider `CN1CCN(c2cccc(C(=O)N3CCC(Cc4ccccc4F)CC3)n2)CC1` [Example 115, [4-(2-Fluoro-benzyl)-piperidin-1-yl]-[6-(4-methyl-piperazin-1-yl)-pyridin-2-yl]-methanone], for which the inhibition at 1 µM in data set [1] is 101%. With `CN1CCN(c2cccc(C(=O)N3CCCC(c4ccccc4F)CC3)n2)CC1` (stereo not drawn) [Example 116, [4-(2-Fluoro-phenyl)-azepan-1-yl]-[6-(4-methyl-piperazin-1-yl)-pyridin-2-yl]-methanone], in data set [1], the inhibition at 1 µM was 98.5%.
